“Also recorded” adds a separate entry of the source.
Legend:
Test in all cases: PDA plate bioassay of artificial VOC mixture / [8]annulene, two day exposure
Assay type in all cases: cell-based
Aspergillus ochraceus = test system: Aspergillus ochraceus
Method: (§1) An artificial mixture of compounds, as well as [8]annulene, that were positively identified in the atmosphere of the Gliocladium sp., were subjected to PDA plate bioassay tests for a two day exposure period. They were available from Sigma-Aldrich (St. Louis, Mo.) or were prepared via organic synthetic techniques (Strobel et al., Microbiology 147: 2943-2950, 2001). Varying amounts (non-equilibrium conditions) of the mixtures of the VOCs (0.8-30 μl) were placed in a small sterile plastic microcup (4×6 mm) that was firmly fixed in the middle of the test plate, and then test organisms were inoculated around the periphery of the agar surface. The amount of each VOC used was calculated from relative areas (RA's) in Table 2. […] Measurements of fungal growth were made and compared to growth on a control PDA plate having no test compounds. The IC50 and IC100 values were calculated from data plots of inhibition of fungal growth as a function of VOC concentrations (Strobel et al., Microbiology 147: 2943-2950, 2001). The IC values are presented as the amount of VOCs (volume per ml of air space in the Petri plate above the fungal culture). Studies were done in triplicate and the data averaged and standard deviations determined (Strobel et al., Microbiology 147: 2943-2950, 2001). Each test organism, after the two day exposure was tested for its viability by placing it on a fresh plate of PDA.
(§2) The test fungi were exposed to amounts of the VOC's varying from 0.8 μl to 30 μl (non-equilibrium conditions in a 50 ml air space volume above the fungal culture on the Petri plate) and exposed to them for two days after which growth rates were measured and the IC50's and IC100's calculated.
(§3) The artificial mixture was prepared based on the ratios of the compounds identified by GC/MS. The IC50's were calculated on the basis of the μl VOCs/ml of the free gas space in the Petri plate above the fungal culture. The IC100's were extrapolated from the curves obtained by plotting fungal inhibition vs. VOC concentration. The IC100's represent the approximate concentration required to give 100% inhibition of fungal growth. Viability was evaluated by transferring the fungal to a regular PDA plate after exposure to the VOC mixtures.
(§4) The IC50's were calculated on the basis of the μl [8]annulene/ml of the free gas space in the Petri plate above the fungal culture. The IC50's and IC100's were calculated in the same manner as described in Example 1. The IC100's represent the approximate concentration required to give 100% inhibition of fungal growth. Viability was tested by transferring the fungal to a regular PDA plate after exposure to [8]annulene.

Fusarium oxysporum = test system: Fusarium oxysporum
Method: as §1, §2, §3, §4

Geotrichum candidum = test system: Geotrichum candidum
Method: as §1, §2, §3, §4

Gliocladium sp. = test system: Gliocladium sp.
Method: as §1, §2, §3, §4

Pythium ultimum = test system: Pythium ultimum
Method: as §1, §2, §3, §4

Rhizoctonia solani = test system: Rhizoctonia solani
Method: as §1, §2, §3, §4

Sclerotinia sclerotiorum = test system: Sclerotinia sclerotiorum
Method: as §1, §2, §3, §4

Verticillium dahliae = test system: Verticillium dahliae
Method: as §1, §2, §3, §4

[1] = after exposure at the IC100 level, placed on fresh agar plate
[2] = two day exposure, approximate concentration for 100% inhibition, extrapolated from inhibition curves
[3] = two day exposure, μl per ml of free gas space in the Petri plate

IC50 (Aspergillus ochraceus; [3]): 0.08 ± 0.01 μl/ml | IC50 (Fusarium oxysporum; [3]): 0.28 ± 0.03 μl/ml | IC50 (Geotrichum candidum; [3]): 0.10 ± 0.02 μl/ml | IC50 (Gliocladium sp.; [3]): 0.30 ± 0.01 μl/ml | IC50 (Pythium ultimum; [3]): 0.10 ± 0.04 μl/ml | IC50 (Rhizoctonia solani; [3]): 0.14 ± 0.08 μl/ml | IC50 (Sclerotinia sclerotiorum; [3]): 0.05 ± 0.01 μl/ml | IC50 (Verticillium dahliae; [3]): 0.18 ± 0.00 μl/ml
Structure (SMILES): C1=CC=CC=CC=C1 [[8]annulene, 1,3,5,7-cyclooctatetraene]
Viability (Aspergillus ochraceus; [1]): alive | IC100 (Aspergillus ochraceus; [2]): 0.50 μl/ml | Viability (Fusarium oxysporum; [1]): alive | IC100 (Fusarium oxysporum; [2]): 0.70 μl/ml | Viability (Geotrichum candidum; [1]): alive | IC100 (Geotrichum candidum; [2]): 0.44 μl/ml | Viability (Gliocladium sp.; [1]): alive | IC100 (Gliocladium sp.; [2]): 0.60 μl/ml | Viability (Pythium ultimum; [1]): did not die; also recorded: alive | IC100 (Pythium ultimum; [2]): 0.30 μl/ml | Viability (Rhizoctonia solani; [1]): alive | IC100 (Rhizoctonia solani; [2]): 0.40 μl/ml | Viability (Sclerotinia sclerotiorum; [1]): did not die; also recorded: alive | IC100 (Sclerotinia sclerotiorum; [2]): 0.30 μl/ml | Viability (Verticillium dahliae; [1]): alive | IC100 (Verticillium dahliae; [2]): 0.30 μl/ml

From patent US20090142816A1, “GLIOCLADIUM ISOLATE C-13 AND METHODS OF ITS USE FOR PRODUCING VOLATILE COMPOUNDS AND HYDROCARBONS” (priority 2007, published 2009)
